Where a SMILES comes first, the peptide text is derived from it. The star is where a group is joined. Cbz = O=C(OCc1ccccc1)*
How the values were obtained:
[1] = biological target: T1, CDK13 (Homo sapiens, UniProt Q14004); experiment: CDK13 degradation in MDA-MB-231 cells by immunoblotting; format: cell-based; details: 0.3 μM; for Protein Degradation (%DMSO control, 0.3 μM) CDK13: MDA-MB-231 cells, 15 h, immunoblotting, normalized against α-tubulin; for Degradation rates of CDK13 at 0.3 μM: supplementary CSV;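 for Protein Degradation (%DMSO control, 0.3 μM) CDK13: percent of CDK13 protein degraded relative to DMSO control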
T1 construct: Immunoblotting of CDK12 and CDK13 in MDA-MB-231 cells treated with increasing concentrations of ZLC491 for 15 h; endogenous in cells; host or cells: MDA-MB-231
T1 sequence (Q14004 whole entry): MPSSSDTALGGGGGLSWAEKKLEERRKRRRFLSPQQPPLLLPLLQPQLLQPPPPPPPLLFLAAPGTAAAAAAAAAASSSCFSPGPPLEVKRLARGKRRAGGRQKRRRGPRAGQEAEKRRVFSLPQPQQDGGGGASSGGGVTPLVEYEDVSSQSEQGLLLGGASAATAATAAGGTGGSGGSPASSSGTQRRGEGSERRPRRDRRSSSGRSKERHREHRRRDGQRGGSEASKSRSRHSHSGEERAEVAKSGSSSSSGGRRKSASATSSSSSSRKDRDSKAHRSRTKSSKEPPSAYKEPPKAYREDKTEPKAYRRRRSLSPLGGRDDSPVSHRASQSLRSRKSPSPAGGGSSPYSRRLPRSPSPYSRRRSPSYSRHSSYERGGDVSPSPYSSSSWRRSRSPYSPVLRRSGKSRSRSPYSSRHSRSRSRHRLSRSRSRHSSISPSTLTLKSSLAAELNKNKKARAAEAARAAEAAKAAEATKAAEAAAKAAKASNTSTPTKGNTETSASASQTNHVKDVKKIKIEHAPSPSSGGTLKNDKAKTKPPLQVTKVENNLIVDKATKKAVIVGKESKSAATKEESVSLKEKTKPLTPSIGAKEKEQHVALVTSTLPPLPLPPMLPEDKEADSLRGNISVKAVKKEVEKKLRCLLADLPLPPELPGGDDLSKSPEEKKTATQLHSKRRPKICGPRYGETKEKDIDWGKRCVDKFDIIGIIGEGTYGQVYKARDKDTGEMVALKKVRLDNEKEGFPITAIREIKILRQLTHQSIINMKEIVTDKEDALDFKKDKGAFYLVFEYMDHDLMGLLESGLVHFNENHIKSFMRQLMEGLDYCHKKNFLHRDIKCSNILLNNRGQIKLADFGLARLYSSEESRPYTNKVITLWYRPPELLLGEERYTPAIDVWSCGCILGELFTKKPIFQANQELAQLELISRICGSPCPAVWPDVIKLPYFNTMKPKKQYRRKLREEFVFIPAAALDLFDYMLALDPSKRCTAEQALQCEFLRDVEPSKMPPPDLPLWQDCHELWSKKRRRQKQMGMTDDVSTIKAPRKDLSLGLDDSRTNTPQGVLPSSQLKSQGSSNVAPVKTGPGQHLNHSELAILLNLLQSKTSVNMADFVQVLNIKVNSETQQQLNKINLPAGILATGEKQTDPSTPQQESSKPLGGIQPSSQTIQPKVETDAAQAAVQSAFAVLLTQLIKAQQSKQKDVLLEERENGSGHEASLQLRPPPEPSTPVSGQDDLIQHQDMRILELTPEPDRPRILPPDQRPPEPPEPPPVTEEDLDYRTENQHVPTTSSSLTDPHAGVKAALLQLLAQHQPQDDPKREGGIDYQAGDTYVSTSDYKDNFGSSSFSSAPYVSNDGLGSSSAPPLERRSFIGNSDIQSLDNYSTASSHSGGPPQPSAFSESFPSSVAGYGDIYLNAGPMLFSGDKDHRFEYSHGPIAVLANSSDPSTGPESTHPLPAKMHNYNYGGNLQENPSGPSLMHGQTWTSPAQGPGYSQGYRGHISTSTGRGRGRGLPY
T1 sequence (O75909 whole entry partner): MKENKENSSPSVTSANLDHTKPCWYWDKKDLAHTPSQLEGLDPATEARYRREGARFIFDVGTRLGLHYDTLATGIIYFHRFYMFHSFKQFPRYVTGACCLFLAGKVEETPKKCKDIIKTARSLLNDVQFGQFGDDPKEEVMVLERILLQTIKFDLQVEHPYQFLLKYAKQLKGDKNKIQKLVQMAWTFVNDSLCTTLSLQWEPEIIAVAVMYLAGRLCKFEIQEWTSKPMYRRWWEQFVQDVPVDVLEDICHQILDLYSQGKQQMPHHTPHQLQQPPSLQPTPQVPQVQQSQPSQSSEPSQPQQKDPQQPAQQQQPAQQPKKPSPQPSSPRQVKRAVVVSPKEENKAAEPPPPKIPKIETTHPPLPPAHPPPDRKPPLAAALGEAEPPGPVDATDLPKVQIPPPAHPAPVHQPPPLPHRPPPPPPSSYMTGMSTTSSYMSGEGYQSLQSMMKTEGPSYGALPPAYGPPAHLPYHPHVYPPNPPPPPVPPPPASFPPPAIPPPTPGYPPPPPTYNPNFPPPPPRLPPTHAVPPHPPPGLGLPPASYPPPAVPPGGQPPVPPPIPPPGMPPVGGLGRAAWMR
Experimental: (§1) The degradation efficiency of the new molecules was assessed by immunoblotting after treatment with the compounds at 0.3 μM in MD-MBA-231 cells for 15 h.
(§2) To further characterize the compound, we determined the half-degradation concentration (DC50) values of ZLC491 in MDA-MB-231 cells. […] We also treated MDA-MB-231 cells with 1 μM ZLC491 at various time points.
(§3) (A) Immunoblotting of CDK12 and CDK13 in MDA-MB-231 cells treated with increasing concentrations of ZLC491 for 15 h (left). Percent remaining CDK12 and CDK13 proteins were plotted for DC50 determination (right). Protein levels were quantified using ImageJ and normalized to corresponding α-tubulin, then plotted using Graphpad Prism 8.0. The data were representative of three independent experiments; (B) immunoblotting of CDK12 and CDK13 proteins in MDA-MB-231 cells treated with ZLC491 for various time points; immunoblotting of CDK12 and CDK13 in HCC38 (C) and MDA-MB-436 (D) cells treated with increasing concentrations of ZLC491 for 15 h. α-Tubulin was used as a loading control. TEXT PRINTED IN THE PICTURE: (A) ZLC491: MDA-MB-231: CDK12 DC50 = 0.032μM; MDA-MB-231: CDK13 DC50 = 0.028μM DOUBTS OF THE COPYIST ABOUT THIS PICTURE: ZLC491, CDK12 DC50: 0.032 read from small print, the digits 3 and 2 are uncertain / ZLC491, CDK13 DC50: 0.028 read from small print, the last digit may be 8, 6 or 3
(§4) Generally, the tested cells were washed by ice-cold PBS buffer (Gibco) and lysed with an SDS lysis buffer (62.5 mM Tris, 2% w/v SDS, 10 glycerol, 50 mM DTT, 0.01% w/v bromophenol blue) on ice, after which the protein lysate samples were collected to 1.5 mL microcentrifuge tubes and treated with ultrasonic for 10 s, following with a 100 °C incubation for 10 min and a 4 °C centrifugation of 12000 rpm for 10 min. An equal amount of protein was loaded to 4–8% Bis-Tris gels and underwent an SDS-PAGE electrophoresis at 55V for 30 min and 95V for 90 min. Proteins on gels were then transferred to a polyvinylidene difluoride (PVDF) membrane (Bio-Rad) with a wet electro transfer system (Bio-Rad). The PVDF membrane was cut into bands and incubated in a blocking reagent (5% defatted milk powder dissolved in TBST) at room temperature for 1–2 h. Incubate membrane and primary antibody (at the appropriate dilution and diluent as recommended in the product webpage) at 4 °C for 12–14 h, followed with three times washes by TBST. The washed membranes were incubated in a secondary antibody solution (HRP-linked antirabbit IgG or antimouse IgG (CST), 1:2000 diluted into TBST) at room temperature for 2 h. Membranes were photographed in Amersham Imager 800 system using StarSignal plus regent (GenStar) or Omni-ECL reagent (EpiZyme). Compounds MG132, MLN4924, Bafilomycin A1 and pomalidomide were purchased from MedChemExpress (MCE) LLC.

[2] = biological target: CDK12 (Homo sapiens, UniProt Q9NYV4); experiment: CDK12 degradation in MDA-MB-231 cells by immunoblotting; format: cell-based; set-up: Immunoblotting of CDK12 and CDK13 in MDA-MB-231 cells treated with increasing concentrations of ZLC491 for 15 h; endogenous in cells; host or cells: MDA-MB-231; details: 0.3 μM; for Protein Degradation (%DMSO control, 0.3 μM) CDK12: MDA-MB-231 cells, 15 h, immunoblotting, normalized against α-tubulin; for Degradation rates of CDK12 at 0.3 μM: supplementary CSV
Chain of CDK12 (Q9NYV4 whole entry): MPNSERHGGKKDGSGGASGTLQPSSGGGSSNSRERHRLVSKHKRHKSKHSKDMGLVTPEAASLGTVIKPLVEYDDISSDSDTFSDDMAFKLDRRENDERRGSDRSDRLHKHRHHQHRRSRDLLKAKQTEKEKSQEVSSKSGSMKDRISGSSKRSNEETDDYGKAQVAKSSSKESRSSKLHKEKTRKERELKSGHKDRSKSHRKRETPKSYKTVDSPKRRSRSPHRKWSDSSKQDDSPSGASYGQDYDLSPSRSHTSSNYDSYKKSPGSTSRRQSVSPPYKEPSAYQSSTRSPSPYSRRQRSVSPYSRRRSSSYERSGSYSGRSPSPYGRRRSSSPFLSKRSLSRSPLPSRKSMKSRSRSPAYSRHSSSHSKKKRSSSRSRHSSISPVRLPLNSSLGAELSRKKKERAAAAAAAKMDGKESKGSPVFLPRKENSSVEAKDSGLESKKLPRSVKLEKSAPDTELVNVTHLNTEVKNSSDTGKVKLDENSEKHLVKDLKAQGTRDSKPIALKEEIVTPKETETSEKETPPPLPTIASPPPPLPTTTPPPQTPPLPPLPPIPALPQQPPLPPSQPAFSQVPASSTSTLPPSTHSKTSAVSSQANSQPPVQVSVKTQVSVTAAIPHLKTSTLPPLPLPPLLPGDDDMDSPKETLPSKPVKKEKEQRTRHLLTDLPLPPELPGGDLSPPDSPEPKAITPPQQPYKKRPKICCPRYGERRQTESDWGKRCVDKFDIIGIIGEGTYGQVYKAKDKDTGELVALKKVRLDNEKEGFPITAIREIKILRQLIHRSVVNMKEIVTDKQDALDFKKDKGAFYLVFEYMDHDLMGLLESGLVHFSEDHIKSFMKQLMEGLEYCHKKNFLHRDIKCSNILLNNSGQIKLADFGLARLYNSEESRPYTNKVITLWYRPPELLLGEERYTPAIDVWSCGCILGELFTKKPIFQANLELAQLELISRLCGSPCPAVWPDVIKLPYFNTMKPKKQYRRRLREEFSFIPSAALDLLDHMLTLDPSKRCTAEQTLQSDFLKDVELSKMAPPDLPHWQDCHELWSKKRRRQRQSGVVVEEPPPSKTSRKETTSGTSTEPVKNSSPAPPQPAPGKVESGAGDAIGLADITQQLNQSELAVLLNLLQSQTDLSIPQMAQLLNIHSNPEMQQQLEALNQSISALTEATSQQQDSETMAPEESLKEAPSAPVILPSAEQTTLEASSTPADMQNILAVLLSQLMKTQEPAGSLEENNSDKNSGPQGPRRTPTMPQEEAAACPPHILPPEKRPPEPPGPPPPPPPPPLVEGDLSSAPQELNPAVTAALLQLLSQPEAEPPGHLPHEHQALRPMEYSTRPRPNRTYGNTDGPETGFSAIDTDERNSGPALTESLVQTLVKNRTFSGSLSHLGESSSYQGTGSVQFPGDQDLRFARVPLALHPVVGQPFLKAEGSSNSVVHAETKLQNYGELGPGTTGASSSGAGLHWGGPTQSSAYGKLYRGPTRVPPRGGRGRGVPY
Chain of CDK12 (O75909 whole entry partner): as the sequence (O75909 whole entry partner) above
Experimental: as §1, §2, §3, §4

[3] = Pharmacokinetics in rats; format: in vivo, rat
Experimental: We further evaluated the in vivo PK properties of compound ZLC491 and the counterpart 4m (without F substitution) in rats, and the results were summarized in Table 2. […] The PK profiles of F-containing compound ZLC491 were further improved.
The pharmacokinetic investigation was taken by Shanghai Medicilon Inc. (Project Code: 26048-23001-NG). Sprague–Dawley male rats (Specific pathogen Free (SPF), provided by Zhejiang Vital River Laboratory Animal Technology Co. Ltd.) were dosed with ZLC491 solution formulation (5% DMSO, 10% Solutol, 85% normal saline, 2.5 mg/kg for intravenous dose, 10 mg/kg for oral dose) or compound 4m solution formulation (5% DMSO, 10% Solutol, 85% (20%HP-β-CD), 2.5 mg/kg for intravenous dose, 10 mg/kg for oral dose). Blood samples were collected at 0.083, 0.25, 0.5, 1, 2, 4, 8, and 24 h in intravenous administration, 0.25, 0.5, 1, 2, 4, 6, 8, and 24 h in oral administration. The blood samples were collected from sets of three rats at each time point in labeled microcentrifuge tubes containing heparin sodium as an anticoagulant. Plasma samples were separated by centrifugation (2–8 °C, 6800g for 6 min) within 1 h and stored below −80 °C until bioanalysis. All samples were processed for analysis by precipitation using acetonitrile and analyzed with a partially validated LC/MS/MS method. Pharmacokinetic parameters were calculated using the noncompartmental analysis tool of WinNonlin Enterprise software.

[4] = test system: CDK12/13; experiment: Mechanism study: pretreatment before ZLC491, immunoblotting of CDK12/13 in MDA-MB-231 cells; format: cell-based, human; details: 2 h pretreatment (1 μM MG132, 0.1 μM MLN4924, 0.1 μM bafilomycin, 5 μM pomalidomide, 8 μM compound 5), then 1 μM ZLC491 10 h
Experimental: We further investigated the mechanism of action of ZLC491-mediated CDK12/13 degradation. […] Additionally, pretreatment with CRBN ligand pomalidomide or the warhead compound 5 also reversed the ZLC491-mediated CDK12/13 degradation in MDA-MB-231 cells (Figure 4D,E).
Figure 4 ZLC491 induced CDK12/13 degradation in a CRBN- and proteasome-dependent fashion. Immunoblotting of CDK12 and CDK13 in MDA-MB-231 cells treated with 1 μM ZLC491 for 10 h with or without pretreatment with 1 μM MG132 (A), 0.1 μM MLN4924 (B), 0.1 μM bafilomycin (C), 5 μM pomalidomide (D) and 8 μM compound 5 (E) for 2 h; (F) immunoblotting of CDK12 and CDK13 in MDA-MB-231 cells treated with 1 μM ZLC491N for 10 h. α-Tubulin was used as a loading control.
as §4

[5] = male, Sprague-Dawley, rat, plasma, oral bioavailability, p.o. 10 mg/kg vs i.v. 2.5 mg/kg

Compound | Protein Degradation (%DMSO control, 0.3 μM) CDK13 [1] [%] | Degradation rates of CDK13 at 0.3 μM [1] [%] | Protein Degradation (%DMSO control, 0.3 μM) CDK12 [2] [%] | Degradation rates of CDK12 at 0.3 μM [2] [%] | CL ([3]; i.v. 2.5 mg/kg) [L/h/kg] | bioavailability [3, 5] [%] | bioavailability at 24 h [3, 5] [%] | effect of pretreatment on ZLC491-induced CDK12/13 degradation [4]
N#Cc1ccc(N[C@H]2CC[C@H](N(C(=O)NCc3ccccc3)c3ccc(N4CCN(C5CN(c6ccc7c(c6)C(=O)N(C6CCC(=O)NC6=O)C7=O)C5)CC4)cc3)CC2)nc1 (stereo partly shown) [4k, 3-Benzyl-1-((1r,4r)-4-((5-cyanopyridin-2-yl)amino)cyclohexyl)-1-(4-(4-(1-(2-(2,6-dioxopiperidin-3-yl)-1,3-dioxoisoindolin-5-yl)azetidin-3-yl)piperazin-1-yl)phenyl)urea] | 76 | 76 | 62 | 62 |  |  |  | 
N#Cc1ccc(N[C@H]2CC[C@H](N(C(=O)NCc3ccccc3)c3ccc(N4CCN(C5CCN(c6ccc7c(c6)C(=O)N(C6CCC(=O)NC6=O)C7=O)C5)CC4)cc3)CC2)nc1 (stereo partly shown) [4l, 3-Benzyl-1-((1r,4r)-4-((5-cyanopyridin-2-yl)amino)cyclohexyl)-1-(4-(4-(1-(2-(2,6-dioxopiperidin-3-yl)-1,3-dioxoisoindolin-5-yl)pyrrolidin-3-yl)piperazin-1-yl)phenyl)urea] | 40 | 40 | 17 | 17 |  |  |  | 
N#Cc1ccc(N[C@H]2CC[C@H](N(C(=O)NCc3ccccc3)c3ccc(N4CCN(C5CCN(c6ccc7c(c6)C(=O)N(C6CCC(=O)NC6=O)C7=O)CC5)CC4)cc3)CC2)nc1 (stereo partly shown) [4m, 3-Benzyl-1-((1r,4r)-4-((5-cyanopyridin-2-yl)amino)cyclohexyl)-1-(4-(4-(1-(2-(2,6-dioxopiperidin-3-yl)-1,3-dioxoisoindolin-5-yl)piperidin-4-yl)piperazin-1-yl)phenyl)urea] | 85 | 85 | 70 | 70 | 0.591 | 16 | 16.5 | 
N#Cc1ccc(N[C@H]2CC[C@H](N(C(=O)NCc3ccccc3)c3ccc(N4CCC5(CC4)CN(c4ccc6c(c4)C(=O)N(C4CCC(=O)NC4=O)C6=O)C5)cc3)CC2)nc1 (stereo partly shown) [4n, 3-Benzyl-1-((1r,4r)-4-((5-cyanopyridin-2-yl)amino)cyclohexyl)-1-(4-(2-(2-(2,6-dioxopiperidin-3-yl)-1,3-dioxoisoindolin-5-yl)-2,7-diazaspiro[3.5]nonan-7-yl)phenyl)urea] | 85 | 85 | 63 | 63 |  |  |  | 
N#Cc1ccc(N[C@H]2CC[C@H](N(C(=O)NCc3ccccc3)c3ccc(N4CCC5(CC4)CCN(c4ccc6c(c4)C(=O)N(C4CCC(=O)NC4=O)C6=O)C5)cc3)CC2)nc1 (stereo partly shown) [4o, 3-Benzyl-1-((1r,4r)-4-((5-cyanopyridin-2-yl)amino)cyclohexyl)-1-(4-(2-(2-(2,6-dioxopiperidin-3-yl)-1,3-dioxoisoindolin-5-yl)-2,8-diazaspiro[4.5]decan-8-yl)phenyl)urea] | 47 | 47 | 27 | 27 |  |  |  | 
N#Cc1ccc(N[C@H]2CC[C@H](N(C(=O)NCc3ccccc3)c3ccc(N4CCC5(CC4)CCN(c4ccc6c(c4)C(=O)N(C4CCC(=O)NC4=O)C6=O)CC5)cc3)CC2)nc1 (stereo partly shown) [4p, 3-Benzyl-1-((1r,4r)-4-((5-cyanopyridin-2-yl)amino)cyclohexyl)-1-(4-(9-(2-(2,6-dioxopiperidin-3-yl)-1,3-dioxoisoindolin-5-yl)-3,9-diazaspiro[5.5]undecan-3-yl)phenyl)urea] | 66 | 66 | 42 | 42 |  |  |  | 
CC(C)C[C@@H](C=O)NC(=O)[C@H](CC(C)C)NC(=O)[C@H](CC(C)C)NC(=O)OCc1ccccc1 [MG132] (Cbz-Leu-Leu-Leu-aldehyde) |  |  |  |  |  |  |  | significantly blocked
NS(=O)(=O)OC[C@@H]1C[C@@H](n2ccc3c(N[C@H]4CCc5ccccc54)ncnc32)C[C@@H]1O [MLN4924] |  |  |  |  |  |  |  | significantly blocked
N#Cc1ccc(N[C@H]2CC[C@H](N(C(=O)NCc3ccccc3)c3ccc(N4CCNCC4)cc3)CC2)nc1 [compound 5, 3-Benzyl-1-((1r,4r)-4-((5-cyanopyridin-2-yl)amino)cyclohexyl)-1-(4-(piperazin-1-yl)phenyl)urea] |  |  |  |  |  |  |  | reversed
Nc1cccc2c1C(=O)N(C1CCC(=O)NC1=O)C2=O (stereo not shown) [pomalidomide] |  |  |  |  |  |  |  | reversed
